Measurements as given in patent US12624017B2, “Salt form of isoquinolinone type compound as rock inhibitor and preparation method therefor” (GUANGZHOU OCUSUN OPHTHALMIC BIOTECHNOLOGY CO., LTD., priority 2020, dated 2026).

Test system: New Zealand rabbits with normal intraocular pressure
Assay: Intraocular pressure reduction, normal intraocular pressure, eye drops in both eyes for 14 days (Operation I)
Assay type: in vivo, New Zealand white rabbits
Conditions: for Change in intraocular pressure: vs negative control
From the text: An intraocular pressure reduction effect and potential ocular toxicity of the compound of formula (I) were inspected with rabbits with normal intraocular pressure by repeated administration of eye drops for 14 days.
Male New Zealand white rabbits, aged 97 to 127 days, weighted 2.6-3.5 kg, purchased from Pizhou Oriental Breeding Co., Ltd.
The Male New Zealand white rabbits were randomly divided into 7 groups according to body weights, 6 rabbits/group. The animals in Groups 1 to 7 were administrated dropwise with a solvent/control/test article in both eyes in an administration volume of 50 μL/eye, once a day for 14 consecutive days, and the day of first administration was recorded as Day 1. The intraocular pressures of the animals were measured before administration, as well as at 1, 2, 4, 6, 8 and 10 h after administration, respectively. On Days 2 to 14, the intraocular pressures of animals in the K-115 administration group were measured at 1 h after daily administration; and intraocular pressures of the animals in the remaining groups were measured at 4 h after daily administration.

[1] = 0.5 mg/mL once a day, Day 2, 4 h after daily administration
[2] = 0.5 mg/mL once a day, Day 3, 4 h after daily administration
[3] = 0.5 mg/mL once a day, Day 4, 4 h after daily administration
[4] = 0.5 mg/mL once a day, Day 5, 4 h after daily administration
[5] = 0.5 mg/mL once a day, Day 6, 4 h after daily administration
[6] = 0.5 mg/mL once a day, Day 7, 4 h after daily administration
[7] = 0.5 mg/mL, Day 1, 1 h after administration
[8] = 0.5 mg/mL, Day 1, 2 h after administration
[9] = 0.5 mg/mL, Day 1, 4 h after administration
[10] = 0.5 mg/mL, Day 1, 6 h after administration
[11] = 0.5 mg/mL, Day 1, 8 h after administration
[12] = 0.5 mg/mL, Day 1, 10 h after administration
[13] = 0.5 mg/mL, Day 1, before administration
[14] = 1.0 mg/mL once a day, Day 2, 4 h after daily administration
[15] = 1.0 mg/mL once a day, Day 3, 4 h after daily administration
[16] = 1.0 mg/mL once a day, Day 4, 4 h after daily administration
[17] = 1.0 mg/mL once a day, Day 5, 4 h after daily administration
[18] = 1.0 mg/mL once a day, Day 6, 4 h after daily administration
[19] = 1.0 mg/mL once a day, Day 7, 4 h after daily administration
[20] = 1.0 mg/mL, Day 1, 1 h after administration
[21] = 1.0 mg/mL, Day 1, 2 h after administration
[22] = 1.0 mg/mL, Day 1, 4 h after administration
[23] = 1.0 mg/mL, Day 1, 6 h after administration
[24] = 1.0 mg/mL, Day 1, 8 h after administration
[25] = 1.0 mg/mL, Day 1, 10 h after administration
[26] = 1.0 mg/mL, Day 1, before administration
[27] = 2.0 mg/mL once a day, Day 2, 4 h after daily administration
[28] = 2.0 mg/mL once a day, Day 3, 4 h after daily administration
[29] = 2.0 mg/mL once a day, Day 4, 4 h after daily administration
[30] = 2.0 mg/mL once a day, Day 5, 4 h after daily administration
[31] = 2.0 mg/mL once a day, Day 6, 4 h after daily administration
[32] = 2.0 mg/mL once a day, Day 7, 4 h after daily administration
[33] = 2.0 mg/mL, Day 1, 1 h after administration
[34] = 2.0 mg/mL, Day 1, 2 h after administration
[35] = 2.0 mg/mL, Day 1, 4 h after administration
[36] = 2.0 mg/mL, Day 1, 6 h after administration
[37] = 2.0 mg/mL, Day 1, 8 h after administration
[38] = 2.0 mg/mL, Day 1, 10 h after administration
[39] = 2.0 mg/mL, Day 1, before administration
[40] = 4.0 mg/mL once a day, Day 2, 4 h after daily administration

Cc1ccc(C(=O)OCn2cc(C)c3c(S(=O)(=O)N4CC[C@H](N)C4)cccc3c2=O)c(C)c1 [Compound of formula (I)]
Average intraocular pressure in both eyes [1]: 7.94 mmHg
Change in intraocular pressure [1]: 3.14 mmHg
Average intraocular pressure in both eyes [2]: 7.31 mmHg
Change in intraocular pressure [2]: 3.08 mmHg
Average intraocular pressure in both eyes [3]: 7.78 mmHg
Change in intraocular pressure [3]: 2.83 mmHg
Average intraocular pressure in both eyes [4]: 7.19 mmHg
Change in intraocular pressure [4]: 3.78 mmHg
Average intraocular pressure in both eyes [5]: 6.61 mmHg
Change in intraocular pressure [5]: 2.7 mmHg
Average intraocular pressure in both eyes [6]: 6.00 mmHg
Change in intraocular pressure [6]: 4.06 mmHg
Change in intraocular pressure (0.5 mg/mL once a day, Day 8, 4 h after daily administration): 4.2 mmHg
Change in intraocular pressure (0.5 mg/mL once a day, Day 9, 4 h after daily administration): 3.25 mmHg
Change in intraocular pressure (0.5 mg/mL once a day, Day 10, 4 h after daily administration): 3 mmHg
Change in intraocular pressure (0.5 mg/mL once a day, Day 11, 4 h after daily administration): 3.25 mmHg
Change in intraocular pressure (0.5 mg/mL once a day, Day 12, 4 h after daily administration): 3.28 mmHg
Change in intraocular pressure (0.5 mg/mL once a day, Day 13, 4 h after daily administration): 3.31 mmHg
Change in intraocular pressure (0.5 mg/mL once a day, Day 14, 4 h after daily administration): 3.72 mmHg
Average intraocular pressure in both eyes [7]: 8.83 mmHg
Change in intraocular pressure [7]: 1.48 mmHg
Average intraocular pressure in both eyes [8]: 7.56 mmHg
Change in intraocular pressure [8]: 3.41 mmHg
Average intraocular pressure in both eyes [9]: 7.11 mmHg
Change in intraocular pressure [9]: 4.2 mmHg
Average intraocular pressure in both eyes [10]: 9.61 mmHg
Change in intraocular pressure [10]: 2.33 mmHg
Average intraocular pressure in both eyes [11]: 9.06 mmHg
Change in intraocular pressure [11]: 3.91 mmHg
Average intraocular pressure in both eyes [12]: 9.97 mmHg
Change in intraocular pressure [12]: 4.45 mmHg
Average intraocular pressure in both eyes [13]: 10.11 mmHg
Change in intraocular pressure [13]: −0.22 mmHg
Average intraocular pressure in both eyes [14]: 7.64 mmHg
Change in intraocular pressure [14]: 3.44 mmHg
Average intraocular pressure in both eyes [15]: 7.50 mmHg
Change in intraocular pressure [15]: 2.89 mmHg
Average intraocular pressure in both eyes [16]: 7.33 mmHg
Change in intraocular pressure [16]: 3.28 mmHg
Average intraocular pressure in both eyes [17]: 7.44 mmHg
Change in intraocular pressure [17]: 3.53 mmHg
Average intraocular pressure in both eyes [18]: 6.92 mmHg
Change in intraocular pressure [18]: 2.39 mmHg
Average intraocular pressure in both eyes [19]: 7.00 mmHg
Change in intraocular pressure [19]: 3.06 mmHg
Change in intraocular pressure (1.0 mg/mL once a day, Day 8, 4 h after daily administration): 4.03 mmHg
Change in intraocular pressure (1.0 mg/mL once a day, Day 9, 4 h after daily administration): 2.5 mmHg
Change in intraocular pressure (1.0 mg/mL once a day, Day 10, 4 h after daily administration): 2.44 mmHg
Change in intraocular pressure (1.0 mg/mL once a day, Day 11, 4 h after daily administration): 2.19 mmHg
Change in intraocular pressure (1.0 mg/mL once a day, Day 12, 4 h after daily administration): 2.64 mmHg
Change in intraocular pressure (1.0 mg/mL once a day, Day 13, 4 h after daily administration): 3.33 mmHg
Change in intraocular pressure (1.0 mg/mL once a day, Day 14, 4 h after daily administration): 3.53 mmHg
Average intraocular pressure in both eyes [20]: 7.08 mmHg
Change in intraocular pressure [20]: 3.23 mmHg
Average intraocular pressure in both eyes [21]: 6.67 mmHg
Change in intraocular pressure [21]: 4.3 mmHg
Average intraocular pressure in both eyes [22]: 6.44 mmHg
Change in intraocular pressure [22]: 4.87 mmHg
Average intraocular pressure in both eyes [23]: 8.00 mmHg
Change in intraocular pressure [23]: 3.94 mmHg
Average intraocular pressure in both eyes [24]: 9.22 mmHg
Change in intraocular pressure [24]: 3.75 mmHg
Average intraocular pressure in both eyes [25]: 10.56 mmHg
Change in intraocular pressure [25]: 3.86 mmHg
Average intraocular pressure in both eyes [26]: 9.94 mmHg
Change in intraocular pressure [26]: −0.05 mmHg
Average intraocular pressure in both eyes [27]: 7.03 mmHg
Change in intraocular pressure [27]: 4.05 mmHg
Average intraocular pressure in both eyes [28]: 7.25 mmHg
Change in intraocular pressure [28]: 3.14 mmHg
Average intraocular pressure in both eyes [29]: 6.86 mmHg
Change in intraocular pressure [29]: 3.75 mmHg
Average intraocular pressure in both eyes [30]: 6.47 mmHg
Change in intraocular pressure [30]: 4.5 mmHg
Average intraocular pressure in both eyes [31]: 5.92 mmHg
Change in intraocular pressure [31]: 3.39 mmHg
Average intraocular pressure in both eyes [32]: 5.78 mmHg
Change in intraocular pressure [32]: 4.28 mmHg
Change in intraocular pressure (2.0 mg/mL once a day, Day 8, 4 h after daily administration): 4.53 mmHg
Change in intraocular pressure (2.0 mg/mL once a day, Day 9, 4 h after daily administration): 3.72 mmHg
Change in intraocular pressure (2.0 mg/mL once a day, Day 10, 4 h after daily administration): 3.81 mmHg
Change in intraocular pressure (2.0 mg/mL once a day, Day 11, 4 h after daily administration): 3.66 mmHg
Change in intraocular pressure (2.0 mg/mL once a day, Day 12, 4 h after daily administration): 3.5 mmHg
Change in intraocular pressure (2.0 mg/mL once a day, Day 13, 4 h after daily administration): 4.28 mmHg
Change in intraocular pressure (2.0 mg/mL once a day, Day 14, 4 h after daily administration): 3.91 mmHg
Average intraocular pressure in both eyes [33]: 8.56 mmHg
Change in intraocular pressure [33]: 1.75 mmHg
Average intraocular pressure in both eyes [34]: 7.47 mmHg
Change in intraocular pressure [34]: 3.5 mmHg
Average intraocular pressure in both eyes [35]: 7.47 mmHg
Change in intraocular pressure [35]: 3.84 mmHg
Average intraocular pressure in both eyes [36]: 7.25 mmHg
Change in intraocular pressure [36]: 4.69 mmHg
Average intraocular pressure in both eyes [37]: 8.44 mmHg
Change in intraocular pressure [37]: 4.53 mmHg
Average intraocular pressure in both eyes [38]: 9.67 mmHg
Change in intraocular pressure [38]: 4.75 mmHg
Average intraocular pressure in both eyes [39]: 9.67 mmHg
Change in intraocular pressure [39]: 0.22 mmHg
Average intraocular pressure in both eyes [40]: 6.53 mmHg
Change in intraocular pressure [40]: 4.55 mmHg
Average intraocular pressure in both eyes (4.0 mg/mL once a day, Day 3, 4 h after daily administration): 5.58 mmHg
